According to paper PMC10250256, “A radiohybrid theranostics ligand labeled with fluorine-18 and lutetium-177 for fibroblast activation protein-targeted imaging and radionuclide therapy” (European Journal of Nuclear Medicine and Molecular Imaging, 2023):

Assays:
HT-1080-FAP cells [1] = experiment: efflux experiments in HT-1080-FAP cells; format: cell-based, human; conditions: preincubated 1 h, up to 4 h
Description: (§1) The human fibrosarcoma cell lines HT-1080 and HT-1080-FAP transferred with human FAP gene were both cultured in Dulbecco modified Eagle medium supplemented with 10% fetal bovine serum (Gibco, USA) at 37℃/5% carbon dioxide. For cell uptake experiments, HT-1080-FAP cells (~ 1 × 10^5/well) or HT-1080 (~ 1 × 10^5/well) were seeded in 24-well plates for 24–48 h and incubated at 37℃ with radiolabeled compounds (74 kBq/well) in 0.5 mL of serum-free medium for indicated times. Non-specific binding was determined by co-incubating with 100 μM FAP inhibitor UAMC1110. For competitive FAP binding assays, HT-1080-FAP cells were incubated with [^177Lu]Lu-FAPI-04 (74 kBq/well) in the presence of different concentrations (10^−3–10^4 nM) of competing non-radioactive ligands. For internalization experiments, the radiotracer-incubated cells were washed twice with PBS (pH 7.4), followed by glycine–HCl (0,05 M, pH = 2.8) solution to distinguish between cell surface–bound (acid-releasable) and internalized (acid-resistant) radioligand. For efflux experiments, cells were preincubated with [^177Lu]21 or [^177Lu]Lu-FAPI-04 for 1 h and subsequently incubated at 37 °C in a medium free of radiotracer and serum for different time periods. […] Cell lysates were collected and the radioactivity was determined using a γ-counter.

HT-1080-FAP cells [2] = experiment: internalization experiments in HT-1080-FAP cells; format: cell-based, human; conditions: 10 min
Description: as §1

[3] = system: HT-1080-FAP tumor-bearing mice; experiment: biodistribution in HT-1080-FAP tumor-bearing mice; format: in vivo, BALB/C-nu/nu mice; conditions: i.v.
Description: All animal experiments were conducted in compliance with a protocol approved by the First Affiliated Hospital of Sun Yat-sen University Institutional Animal Care and Use Committee. BALB/C-nu/nu mice (4–5-week old with body weight of 16–22 g) were purchased from GemPharmatech Co., Ltd. Mice were housed under standard conditions with temperature and light control (12-h-light/12-h-dark cycle) and had free access to water and food. For the tumor model, HT-1080-FAP or HT-1080 cells (5 × 10^6) were subcutaneously injected into the right or left flank of nude mice, respectively. As the tumor diameter reached 3–4 mm, mice were treated with radioligands. Micro-PET and SPECT imaging studies, as well as biodistribution, were conducted when the tumor diameter reached 5–10 mm.
[^177Lu]21 (~ 0.925 MBq) was injected via the tail vein of HT-1080-FAP tumor-bearing mice. The animals were sacrificed at 4, 24, 48 and 96 h pi. Organs of interest were dissected, weighed and counted with a γ-counter. The data were normalized to percentage injected dose (%ID/g) with standard dilution of the initial dose. The biodistribution of [^177Lu]Lu-FAPI-04 was conducted at 24 h pi for comparison.

CC(C)(C)[Si](F)(c1ccc(C(=O)NCC(NC(=O)CCC(C(=O)O)N2CCN(CC(=O)[O-])CCN(CC(=O)[O-])CCN(CC(=O)[O-])CC2)C(=O)NCC2CCC(C(=O)NCCCOc3ccc4nccc(C(=O)NCC(=O)N5CC(F)(F)CC5C#N)c4c3)CC2)cc1)C(C)(C)C.[177Lu+3] (stereo not shown) [[^177Lu]21]
efflux (HT-1080-FAP cells [1]): slower excretion up to 4 h than [^177Lu]Lu-FAPI-04
internalization rate (HT-1080-FAP cells [2]): > 80%
Tumor/ Kidney ratio ([3]; 4 h pi): 2.15 ± 0.55
Tumor/Blood ratio ([3]; 4 h pi): 2.63 ± 0.23
Tumor/Liver ratio ([3]; 4 h pi): 3.98 ± 1.00
Tumor/Muscle ratio ([3]; 4 h pi): 6.36 ± 0.27
uptake in HT-1080-FAP tumor ([3]; 4 h pi): 9.82 ± 1.35 %ID/g
uptake in blood ([3]; 4 h pi): 3.73 ± 0.36 %ID/g
uptake in bone ([3]; 4 h pi): 6.76 ± 0.51 %ID/g
uptake in brain ([3]; 4 h pi): 0.14 ± 0.01 %ID/g
uptake in heart ([3]; 4 h pi): 1.97 ± 0.09 %ID/g
uptake in intestine ([3]; 4 h pi): 2.12 ± 0.5 %ID/g
uptake in kidney ([3]; 4 h pi): 4.70 ± 0.89 %ID/g
uptake in liver ([3]; 4 h pi): 2.56 ± 0.57 %ID/g
uptake in lung ([3]; 4 h pi): 3.33 ± 0.97 %ID/g
uptake in muscle ([3]; 4 h pi): 1.54 ± 0.14 %ID/g
uptake in pancreas ([3]; 4 h pi): 4.03 ± 0.93 %ID/g
uptake in skin ([3]; 4 h pi): 3.60 ± 0.56 %ID/g
uptake in spleen ([3]; 4 h pi): 1.53 ± 0.25 %ID/g
uptake in stomach ([3]; 4 h pi): 1.80 ± 0.52 %ID/g
Tumor/ Kidney ratio ([3]; 24 h pi): 1.73 ± 0.32
Tumor/Blood ratio ([3]; 24 h pi): 13.77 ± 4.99
Tumor/Liver ratio ([3]; 24 h pi): 1.84 ± 0.41
Tumor/Muscle ratio ([3]; 24 h pi): 7.03 ± 1.39
uptake in HT-1080-FAP tumor ([3]; 24 h pi): 2.98 ± 0.98 %ID/g
uptake in blood ([3]; 24 h pi): 0.22 ± 0.03 %ID/g
uptake in bone ([3]; 24 h pi): 2.46 ± 0.74 %ID/g
uptake in brain ([3]; 24 h pi): 0.02 ± 0.00 %ID/g
uptake in heart ([3]; 24 h pi): 0.61 ±0.43 %ID/g
uptake in intestine ([3]; 24 h pi): 0.37 ± 0.03 %ID/g
uptake in kidney ([3]; 24 h pi): 1.72 ± 0.45 %ID/g
uptake in liver ([3]; 24 h pi): 1.63 ± 0.44 %ID/g
uptake in lung ([3]; 24 h pi): 0.46 ± 0.11 %ID/g
uptake in muscle ([3]; 24 h pi): 0.42 ± 0.09 %ID/g
uptake in pancreas ([3]; 24 h pi): 0.69 ± 0.14 %ID/g
uptake in skin ([3]; 24 h pi): 1.07 ± 0.32 %ID/g
uptake in spleen ([3]; 24 h pi): 0.69 ± 0.13 %ID/g
uptake in stomach ([3]; 24 h pi): 0.39 ± 0.11 %ID/g
Tumor/ Kidney ratio ([3]; 48 h pi): 1.60 ± 0.19
Tumor/Blood ratio ([3]; 48 h pi): 56.58 ± 6.63
Tumor/Liver ratio ([3]; 48 h pi): 3.66 ± 0.52
Tumor/Muscle ratio ([3]; 48 h pi): 11.31 ± 1.41
uptake in HT-1080-FAP tumor ([3]; 48 h pi): 2.43 ± 0.04 %ID/g
uptake in blood ([3]; 48 h pi): 0.04 ± 0.01 %ID/g
uptake in bone ([3]; 48 h pi): 3.09 ± 0.86 %ID/g
uptake in heart ([3]; 48 h pi): 0.27 ± 0.05 %ID/g
uptake in intestine ([3]; 48 h pi): 0.12 ± 0.02 %ID/g
uptake in kidney ([3]; 48 h pi): 1.53 ± 0.21 %ID/g
uptake in liver ([3]; 48 h pi): 0.67 ± 0.11 %ID/g
uptake in lung ([3]; 48 h pi): 0.53 ± 0.4 %ID/g
uptake in muscle ([3]; 48 h pi): 0.22 ± 0.03 %ID/g
uptake in pancreas ([3]; 48 h pi): 0.35 ± 0.04 %ID/g
uptake in skin ([3]; 48 h pi): 0.58 ± 0.09 %ID/g
uptake in spleen ([3]; 48 h pi): 0.81 ± 0.18 %ID/g
uptake in stomach ([3]; 48 h pi): 0.32 ± 0.04 %ID/g
Tumor/ Kidney ratio ([3]; 96 h pi): 1.11 ± 0.04
Tumor/Blood ratio ([3]; 96 h pi): 102.33 ± 11.24
Tumor/Liver ratio ([3]; 96 h pi): 0.93 ± 0.01
Tumor/Muscle ratio ([3]; 96 h pi): 9.0 ± 1.35
uptake in HT-1080-FAP tumor ([3]; 96 h pi): 1.02 ± 0.11 %ID/g
uptake in blood ([3]; 96 h pi): 0.01 ± 0.00 %ID/g
uptake in bone ([3]; 96 h pi): 3.02 ± 0.69 %ID/g
uptake in brain ([3]; 96 h pi): 0.01 ± 0.00 %ID/g
uptake in heart ([3]; 96 h pi): 0.16 ± 0.03 %ID/g
uptake in intestine ([3]; 96 h pi): 0.11 ± 0.01 %ID/g
uptake in kidney ([3]; 96 h pi): 0.92 ± 0.13 %ID/g
uptake in liver ([3]; 96 h pi): 1.10 ± 0.12 %ID/g
uptake in lung ([3]; 96 h pi): 0.57 ± 0.34 %ID/g
uptake in muscle ([3]; 96 h pi): 0.12 ± 0.03 %ID/g
uptake in pancreas ([3]; 96 h pi): 0.15 ± 0.03 %ID/g
uptake in skin ([3]; 96 h pi): 0.35 ± 0.05 %ID/g
uptake in spleen ([3]; 96 h pi): 0.43 ± 0.07 %ID/g
uptake in stomach ([3]; 96 h pi): 0.20 ± 0.01 %ID/g
